Reference: patent US9499553B2 (CHUGAI SEIYAKU KABUSHIKI KAISHA, priority 2013, dated 2016)
Where two headings read alike, the source gives them in different places.

What was measured:
Format in all cases: cell-based
[1] = target: T1, human NaPi-IIb (Homo sapiens, UniProt O95436); experiment: Inhibitory effect on 33PO4 uptake into human NaPi-IIb-expressing CHO cells
T1 construct: expressed in transfected cells
T1 sequence (O95436 1-690): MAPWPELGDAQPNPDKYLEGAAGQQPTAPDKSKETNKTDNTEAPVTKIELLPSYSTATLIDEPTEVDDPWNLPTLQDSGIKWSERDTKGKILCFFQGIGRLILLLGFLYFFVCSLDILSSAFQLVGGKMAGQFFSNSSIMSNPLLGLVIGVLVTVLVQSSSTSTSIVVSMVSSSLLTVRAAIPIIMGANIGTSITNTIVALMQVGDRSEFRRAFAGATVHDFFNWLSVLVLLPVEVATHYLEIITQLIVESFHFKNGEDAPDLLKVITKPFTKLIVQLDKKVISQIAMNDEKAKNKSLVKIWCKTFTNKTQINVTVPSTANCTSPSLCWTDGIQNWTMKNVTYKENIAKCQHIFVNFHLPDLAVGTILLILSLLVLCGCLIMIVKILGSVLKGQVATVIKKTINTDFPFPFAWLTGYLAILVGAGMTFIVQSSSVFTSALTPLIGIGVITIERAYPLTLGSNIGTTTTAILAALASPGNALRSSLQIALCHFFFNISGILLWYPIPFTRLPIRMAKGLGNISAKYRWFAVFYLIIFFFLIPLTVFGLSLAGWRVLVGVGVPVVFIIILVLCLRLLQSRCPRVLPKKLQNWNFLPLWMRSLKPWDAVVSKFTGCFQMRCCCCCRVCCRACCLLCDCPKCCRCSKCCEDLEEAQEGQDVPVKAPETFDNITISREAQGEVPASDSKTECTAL
How it was run: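 Stable human NaPi-IIb CHO line (G418-selected), plated and cultured overnight; ³³PO4 added in buffer A and uptake run at room temperature. Cells washed with ice-cold buffer A, then uptake counted by liquid scintillation.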

[2] = target: T2, human PiT-2 (Homo sapiens, UniProt Q08357); experiment: Inhibitory effect on 33PO4 uptake into human PiT-2-expressing CHO cells; conditions: pH 6.5, read-out: IC50 against 33PO4 uptake into human PiT-2-expressing cells
T2 construct: expressed in transfected cells; host or cells: CHO cells
T2 sequence (Q08357 1-652): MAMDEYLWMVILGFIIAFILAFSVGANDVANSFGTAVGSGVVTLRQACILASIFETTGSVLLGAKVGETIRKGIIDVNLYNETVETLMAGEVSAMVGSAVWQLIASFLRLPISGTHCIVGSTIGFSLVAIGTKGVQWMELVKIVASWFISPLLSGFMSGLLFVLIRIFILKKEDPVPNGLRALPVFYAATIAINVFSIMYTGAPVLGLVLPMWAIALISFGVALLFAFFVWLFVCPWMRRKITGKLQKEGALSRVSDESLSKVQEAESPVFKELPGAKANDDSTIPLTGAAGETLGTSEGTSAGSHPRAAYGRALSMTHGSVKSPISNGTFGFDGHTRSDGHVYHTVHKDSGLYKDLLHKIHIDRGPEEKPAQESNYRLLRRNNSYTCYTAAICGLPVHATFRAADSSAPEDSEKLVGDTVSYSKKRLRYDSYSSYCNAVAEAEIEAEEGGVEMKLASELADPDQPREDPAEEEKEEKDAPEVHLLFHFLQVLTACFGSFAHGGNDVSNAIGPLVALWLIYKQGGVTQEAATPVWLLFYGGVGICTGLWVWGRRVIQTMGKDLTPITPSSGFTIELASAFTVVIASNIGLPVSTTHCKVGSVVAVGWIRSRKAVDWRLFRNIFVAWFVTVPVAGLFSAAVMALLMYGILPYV
Protocol: Test Example 4: Inhibitory Effect on ^33PO4 Uptake into Human PiT-2-Expressing Cell
(§1) CHO cells were transfected with human PiT-2 expression plasmids or empty vectors to prepare human PiT-2-expressing cells and empty vector-expressing cells. The human PiT-2-expressing cells or the empty vector-expressing cells were inoculated to a 96-well plate and incubated overnight in a CO2 incubator. […] After a given time, a 1/20 volume of buffer A containing ^33PO4 was added thereto and reacted at room temperature. After washing with ice-cold buffer A, a liquid scintillator was added to each reaction mixture, and the amount of ^33PO4 uptake was measured using TopCount. The rate of inhibition was determined according to the following expression: Rate (%) of inhibition=(1−(Amount of ^33PO4 uptake in the compound-supplemented well containing the human PiT-2-expressing cells−Amount of ^33PO4 uptake in the compound-supplemented well containing the empty vector-expressing cells)/(Amount of ^33PO4 uptake in the DMSO-supplemented well containing the human PiT-2-expressing cells −Amount of ^33PO4 uptake in the DMSO-supplemented well containing the empty vector-expressing cells))×100

[3] = target: T3, human PiT-1 (Homo sapiens, UniProt Q8WUM9); experiment: Inhibitory effect on 33PO4 uptake into human PiT-1-expressing CHO cells; conditions: compound 0.24, 1.2, 6 or 30 μM, pH 6.5, read-out: IC50 against 33PO4 uptake into human PiT-1-expressing cells
T3 construct: expressed in transfected cells; host or cells: CHO cells
T3 sequence (Q8WUM9 1-679): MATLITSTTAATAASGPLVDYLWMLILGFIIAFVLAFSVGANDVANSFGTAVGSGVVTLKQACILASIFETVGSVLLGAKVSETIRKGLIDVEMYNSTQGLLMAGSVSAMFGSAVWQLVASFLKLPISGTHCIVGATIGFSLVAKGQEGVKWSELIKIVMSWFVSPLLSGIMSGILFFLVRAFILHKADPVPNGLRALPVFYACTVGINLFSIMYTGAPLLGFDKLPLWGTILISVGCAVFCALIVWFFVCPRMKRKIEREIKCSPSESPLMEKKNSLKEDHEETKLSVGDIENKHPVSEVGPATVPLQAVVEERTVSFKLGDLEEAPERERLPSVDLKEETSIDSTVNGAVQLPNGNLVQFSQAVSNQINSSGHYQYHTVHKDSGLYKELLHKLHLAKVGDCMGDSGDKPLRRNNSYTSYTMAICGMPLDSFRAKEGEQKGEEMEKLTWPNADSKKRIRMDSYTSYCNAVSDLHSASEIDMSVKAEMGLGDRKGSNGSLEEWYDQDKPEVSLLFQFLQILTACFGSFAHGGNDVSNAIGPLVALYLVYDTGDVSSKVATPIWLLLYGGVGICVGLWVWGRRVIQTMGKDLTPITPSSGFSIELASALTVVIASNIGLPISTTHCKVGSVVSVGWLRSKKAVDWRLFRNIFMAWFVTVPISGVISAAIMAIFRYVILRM
Protocol: Test Example 3: Inhibitory Effect on ^33PO4 Uptake into Human PiT-1-Expressing Cell
as §1, with “PiT-1” for “PiT-2”, “PiT-1-expressing” for “PiT-2-expressing”

[4] = read-out: IC50 against 33PO4 uptake into human NaPi-IIb-expressing cells

| SMILES | IC50 ([1]; read-out: IC50) [µM] | IC50 [2] [µM] | IC50 [3] [µM] | IC50 [1, 4] [µM] |
| --- | --- | --- | --- | --- |
| C[C@]12CCCN1N(Cc1cccc(Cl)c1F)C(=O)C(C(=O)Nc1cc(F)c(Br)c(F)c1)=C2O [Example 196, (4aR)-N-(4-Bromo-3,5-difluorophenyl)-1-[(3-chloro-2-fluorophenyl)methyl]-4-hydroxy-4a-methyl-2-oxo-6,7-dihydro-5H-pyrrolo[1,2-b]pyridazine-3-carboxamide] | 2.8 | 6.2 | 5.6 |  |
| CN1[C@@H](C(C)(C)C)C(O)=C(C(=O)Nc2ccc(C(F)(F)F)cc2-c2cc(C(F)(F)F)ncn2)C(=O)N1Cc1ccc(OCCN2CCOCC2)c(F)c1F [Example 264, (3S)-3-tert-Butyl-1-[[2,3-difluoro-4-(2-morpholin-4-ylethoxy)phenyl]methyl]-4-hydroxy-2-methyl-6-oxo-N-[4-(trifluoromethyl)-2-[6-(trifluoromethyl)pyrimidin-4-yl]phenyl]-3H-pyridazine-5-carboxamide] | 19.4 | 3.8 | 4.6 |  |
| CN1[C@@H](C(C)(C)C)C(O)=C(C(=O)Nc2ccc(Cl)cc2-c2ccc(C(F)(F)F)nc2)C(=O)N1Cc1ccc(OCCN2CCOCC2)c(F)c1F [Example 267, (3S)-3-tert-Butyl-N-[4-chloro-2-[6-(trifluoromethyl)pyridin-3-yl]phenyl]-1-[[2,3-difluoro-4-(2-morpholin-4-ylethoxy)phenyl]methyl]-4-hydroxy-2-methyl-6-oxo-3H-pyridazine-5-carboxamide] | 7.5 | 4.7 | 4.1 |  |
| CSc1ccc(-c2cc(Cl)ccc2NC(=O)C2=C(O)[C@H](C(C)(C)C)N(C)N(Cc3ccc(OCCN4CCOCC4)c(F)c3F)C2=O)cn1 [Example 269, (3S)-3-tert-Butyl-N-[4-chloro-2-(6-methylsulfanyl-pyridin-3-yl)phenyl]-1-[[2,3-difluoro-4-(2-morpholin-4-ylethoxy)phenyl]methyl]-4-hydroxy-2-methyl-6-oxo-3H-pyridazine-5-carboxamide] | 4.5 | 10.6 | 7.9 |  |
| Cc1c(C#N)ncnc1-c1cc(C(F)(F)F)ccc1NC(=O)C1=C(O)[C@H](C(C)(C)C)N(C)N(Cc2ccc(OCCN3CCOCC3)c(F)c2F)C1=O [Example 270, (3S)-3-tert-Butyl-N-[2-(6-cyano-5-methylpyrimidin-4-yl)-4-(trifluoromethyl)phenyl]-1-[[2,3-difluoro-4-(2-morpholin-4-yl-ethoxy)phenyl]methyl]-4-hydroxy-2-methyl-6-oxo-3H-pyridazine-5-carboxamide] | 14.6 | 3.6 | 3.4 |  |
| CN1N(Cc2ccc(OCCCCC(=O)O)c(F)c2F)C(=O)C(C(=O)Nc2ccc(C(F)(F)F)cc2-c2cc(C(F)(F)F)ncn2)=C(O)C12CCCC2 [Example 333, 5-[2,3-Difluoro-4-[[10-hydroxy-6-methyl-8-oxo-9-[[4-(trifluoromethyl)-2-[6-(trifluoromethyl)pyrimidin-4-yl]phenyl]carbamoyl]-6,7-diazaspiro[4.5]dec-9-en-7-yl]methyl]phenoxy]pentanoic acid] | 19.5 | 10.4 | 3.6 |  |
| COC[C@@H]1CCCN1CCOc1ccc(CN2C(=O)C(C(=O)Nc3ccc(C(F)(F)F)cc3-c3cc(C(F)(F)F)ncn3)=C(O)C3(CCC3)N2C)c(F)c1F [Example 345, 6-[[2,3-Difluoro-4-[2-[(2S)-2-(methoxymethyl)pyrrolidin-1-yl]ethoxy]phenyl]methyl]-9-hydroxy-5-methyl-7-oxo-N-[4-(trifluoromethyl)-2-[6-(trifluoromethyl)pyrimidin-4-yl]phenyl]-5,6-diazaspiro[3.5]non-8-ene-8-carboxamide] | 7.7 | 1.4 | 1.2 |  |
| CN(C)CC(C)(C)COc1ccc(CN2C(=O)C(C(=O)Nc3ccc(C(F)(F)F)cc3-c3cc(C(F)(F)F)ncn3)=C(O)C3(CCCC3)N2C)c(F)c1F [Example 414, 7-(4-(3-(Dimethylamino)-2,2-dimethylpropoxy)-2,3-difluorobenzyl)-10-hydroxy-6-methyl-8-oxo-N-(4-(tri-fluoromethyl)-2-(6-(trifluoromethyl)pyrimidin-4-yl)phenyl)-6,7-diazaspiro [4.5]dec-9-ene-9-carboxamide] |  | 1.2 | 1.9 | 4.6 |
| COCCN(C)CCOc1ccc(CN2C(=O)C(C(=O)Nc3ccc(C(F)(F)F)cc3-c3ncnc(C(F)(F)F)c3C)=C(O)C3(CCCC3)N2C)c(F)c1F [Example 416] |  | 1.4 | 0.9 | 5.8 |
| CN(C[C@H](O)[C@@H](O)[C@H](O)[C@H](O)CO)C(=O)CCCOc1ccc(CN2C(=O)C(C(=O)Nc3ccc(C(F)(F)F)cc3-c3cc(C(F)(F)F)ncn3)=C(O)C3(CCCC3)N2C)c(F)c1F [Example 418, 7-[[2,3-Difluoro-4-[4-[methyl-[(2S,3R,4R,5R)-2,3,4,5,6-penta-hydroxyhexyl]amino]-4-oxobutoxy]phenyl]methyl]-10-hydroxy-6-methyl-8-oxo-N-[4-(trifluoromethyl)-2-[6-(trifluoromethyl)pyrimidin-4-yl]phenyl]-6,7-diazaspiro[4.5]dec-9-ene-9-carboxamide] |  | 4.6 | 4.1 | 10.9 |
